Measurements: the METLIN SMRT retention time set (Domingo-Almenara et al. 2019)

Experiment: gradient 5% acetonitrile 3 min, to 50% in 2 min, to 85% in 15 min, held 3 min, 100 µL/min
Details: column: Zorbax Extend-C18 2.1 x 50 mm; eluents: water / acetonitrile, 0.1% formic acid
Summary of the method: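 Retention time was recorded from adduct peaks, which were picked computationally and each inspected manually. Pure standards ran in mixtures of ~100 molecules on HPLC coupled to a quadrupole time-of-flight mass spectrometer, in positive and negative ionization mode, through a Zorbax Extend-C18 column (2.1 × 50 mm, 1.8 μm) at 100 μL/min. Eluents were water and acetonitrile, each with 0.1% formic acid.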

## C=CCN1C(=O)C(C)(C)COc2ccc(NC(=O)Oc3ccccc3)cc21
  RP-LC retention time: 960 s

## Cc1ccnc(N2CCCC(C(=O)N3CCC(Cc4ccccc4)CC3)C2)n1 (stereo not drawn)
  RP-LC retention time: 987 s

## COc1ccc(-n2ccn(CC(=O)Nc3ccc(OC)c(Cl)c3)c2=O)cc1
  RP-LC retention time: 734 s

## CC(C)N1CCC(F)(c2nc(-c3ccccc3)no2)CC1
  RP-LC retention time: 657 s

## Cc1nn(CC(=O)N2CCN(c3ccc(Cl)cc3)CC2)c(=O)c2noc(C)c12
  RP-LC retention time: 821 s

## CN(C)C(CNC(=O)C1(c2cccs2)CCCC1)c1ccsc1 (stereo not drawn)
  RP-LC retention time: 596 s

## O=C(NCc1ccco1)c1nc2ccccn2c1-c1ccsc1
  RP-LC retention time: 761 s

## O=C(c1nnc(-c2ccc(S(=O)(=O)N3CCCC3)cc2)o1)N1CCN(C2CCCCC2)CC1
  RP-LC retention time: 658 s

## CC1(C(=O)N2CC(F)(F)C[C@H]2c2nnc(-c3ccccc3)o2)CC1
  RP-LC retention time: 834 s

## Cc1ccc2c(c1)N(S(C)(=O)=O)CCC(C(=O)Nc1cccc(OC(C)C)c1)O2 (stereo not drawn)
  RP-LC retention time: 893 s

## O=C(Cn1cnc(-c2ccc(F)cc2)cc1=O)NCc1ccco1
  RP-LC retention time: 684 s

## CCCn1cnc2cc(CNC(=O)c3cnccn3)ccc21
  RP-LC retention time: 578 s

## O=C(NCc1csc(-c2ccccc2)n1)C1CCN(C(=O)Nc2ccccc2Cl)CC1
  RP-LC retention time: 822 s

## Cc1ccc(CSc2nc(CC(=O)N3CCC(C(N)=O)CC3)cs2)cc1
  RP-LC retention time: 680 s

## CCc1ccc2[nH]c3c(c(=O)c2c1)CN(CC(=O)Nc1cc(OC)cc(OC)c1)CC3
  RP-LC retention time: 642 s

## CCc1ccccc1NC(=O)CN1C(=O)CCCc2cc(S(=O)(=O)N3CCCC3)ccc21
  RP-LC retention time: 845 s

## Cc1c(CC(=O)NC2CC2)c(=O)n2nc(-c3ccccc3)nc2n1C
  RP-LC retention time: 651 s

## O=C(NCCN1CCCC1)c1cccc(N2CCNC(c3ccccc3)C2)n1 (stereo not drawn)
  RP-LC retention time: 553 s

## CCCN1C(=O)COc2ccc(-c3noc(-c4cccc(N(C)C)c4)n3)cc21
  RP-LC retention time: 1300 s

## O=C(Nc1c(C(=O)N2CCN(c3ccccn3)CC2)oc2ccccc12)c1ccc([N+](=O)[O-])cc1
  RP-LC retention time: 757 s

## Cc1ccsc1C(=O)Nc1ccc(N2CCN(c3ccccc3)C2=O)nc1
  RP-LC retention time: 893 s

## Cc1ccc2c(c1)N(S(C)(=O)=O)CCC(C(=O)Nc1ccc(C)c(C)c1)O2 (stereo not drawn)
  RP-LC retention time: 912 s

## Cc1cccc(S(=O)(=O)N2CCC(c3noc(-c4ccc(F)cc4)n3)CC2)c1
  RP-LC retention time: 1180 s

## COc1cc(OC)cc(C(=O)N2CCC3(CC2)NC(=O)c2ccc(F)cc2N3C)c1
  RP-LC retention time: 734 s

## COC(=O)c1cc(OCC(=O)Nc2ccc3c(c2)OCO3)c2cc(C)ccc2n1
  RP-LC retention time: 821 s

## O=C(Nc1cnc(N2CCCCC2)nc1)c1ccsc1
  RP-LC retention time: 800 s

## Cc1ccc(C)c(-c2cc3c4nn(CC(=O)N(C)c5ccc(F)cc5)c(=O)n4ccn3n2)c1
  RP-LC retention time: 1020 s

## COc1ccc(OC)c(NC(=O)C2CCN(S(=O)(=O)c3ccc4c(c3)sc(=O)n4C)CC2)c1
  RP-LC retention time: 840 s

## CC1CCC(C(=O)Nc2cc3c(cc2N2CCOCC2)n(C)c(=O)c(=O)n3C)CC1 (stereo not drawn)
  RP-LC retention time: 782 s

## O=C(C1=C(O)C(=O)N(CCCn2ccnc2)C1c1cccc([N+](=O)[O-])c1)c1cccs1 (stereo not drawn)
  RP-LC retention time: 565 s

## Cc1ccc(S(=O)(=O)N2CC(=O)N(C3CCCCC3)C(C)(C(=O)NCc3ccccc3)C2)cc1 (stereo not drawn)
  RP-LC retention time: 1100 s

## COc1ccccc1C1(CNC(=O)Cc2cn(C)c3ccccc23)CCOCC1
  RP-LC retention time: 815 s

## CCOc1cc(C(=O)NC2CCN(c3cc(-c4ccc(F)cc4)[nH]n3)C2)cc(OCC)c1OCC (stereo not drawn)
  RP-LC retention time: 858 s

## Cc1nc2c(c(=O)n1CC(=O)NCc1cccs1)CCN(Cc1ccccc1)C2
  RP-LC retention time: 608 s

## CCOc1nc2ccccc2nc1N1CCCC(C(=O)Nc2ccc(Cl)cc2)C1 (stereo not drawn)
  RP-LC retention time: 1300 s

## CCOC(=O)c1c(C)c(CCC(=O)NCCN2CCCCCC2)n(C)c1C
  RP-LC retention time: 645 s

## COCCCNC(=O)C1CCN(Cc2cc3ccccc3n2Cc2ccccc2Cl)CC1
  RP-LC retention time: 713 s

## Cc1ccc(Cl)cc1N1CCN(C(=O)c2[nH]c(C)c(S(=O)(=O)N3CCCC3)c2C)CC1
  RP-LC retention time: 1060 s

## COC(=O)C1CCC(=O)N1C(c1ccc(OC)cc1)c1cc(OC)c(OC)c(OC)c1 (stereo not drawn)
  RP-LC retention time: 753 s

## COc1cccc(CNC(=O)C2(C)CCCN(C(=O)Nc3cc(C)cc(C)c3)C2)c1 (stereo not drawn)
  RP-LC retention time: 961 s

## COc1ccc(NC(=O)N(C)CC2CCOCC2)cc1Cl
  RP-LC retention time: 712 s

## CCNC(=O)N(C)Cc1ccc(C)s1
  RP-LC retention time: 722 s

## COCc1nc2cccnc2n1C1CCN(C(=O)Nc2ccc(OC)c(OC)c2)CC1
  RP-LC retention time: 638 s

## Cc1cc(C)n(CCNC(=O)CN2CCN(c3ccc4c(c3)OCCO4)C2=O)n1
  RP-LC retention time: 616 s

## COc1ccc2c(c1)C13CCN(C)C(C2)C1CCC1(C3)OCCO1 (stereo not drawn)
  RP-LC retention time: 645 s

## Cc1ccc(-n2c(CN3CCN(C(=O)NC4CCCC4)CC3)nc3cccnc32)cc1
  RP-LC retention time: 663 s

## Cc1oc(C2CCN(C(=O)Cc3c(F)cccc3Cl)CC2)nc1C(=O)N(C)C
  RP-LC retention time: 747 s

## Cc1nn(CC(=O)N2CCN(c3ccccn3)CC2)c(=O)c2c1sc1ccccc12
  RP-LC retention time: 640 s

## CC(=O)c1cccc(NC(=O)c2c(F)cccc2F)c1
  RP-LC retention time: 708 s

## CC1(C(=O)NCc2ccccc2)CN(S(=O)(=O)c2ccccc2)CC(=O)N1C1CCCCCC1 (stereo not drawn)
  RP-LC retention time: 1060 s

## O=C(CS(=O)Cc1cnn(-c2ccccc2)c1-n1cccc1)N1CCN(C2CCCCC2)CC1 (stereo not drawn)
  RP-LC retention time: 643 s

## O=S(=O)(c1ccc2nc(N3CCN(C4CCCCC4)CC3)cnc2c1)N1CCCCC1
  RP-LC retention time: 705 s

## Cc1oc(-c2ccc(C(=O)NCCCN3CCCC3)cc2)nc1COc1ccccc1
  RP-LC retention time: 715 s

## O=C(CCc1csc(NC(=O)NC2CCCCC2)n1)NCc1cccs1
  RP-LC retention time: 711 s

## O=c1n(Cc2ccc(Cl)cc2)nc2c(S(=O)(=O)N3CCc4ccccc4C3)cccn12
  RP-LC retention time: 1020 s

## O=C(c1ccc(F)c(Cl)c1)N(CC1CCOC1)C1CC1 (stereo not drawn)
  RP-LC retention time: 824 s

## CCN1CCN(C(=O)c2cc3n(n2)CC(C)(C(=O)NC2CCCCC2)N(C)C3=O)CC1 (stereo not drawn)
  RP-LC retention time: 584 s

## O=C(c1noc2ccc(S(=O)(=O)N3CCCc4ccccc43)cc12)N1CCCCC1
  RP-LC retention time: 1090 s

## CN(C)CCn1c2c(c(SCC(=O)Nc3ccc(Cl)cc3)nc1=O)CCC2
  RP-LC retention time: 656 s

## CCN(CC)C(=O)N1CC(Oc2ccc(-c3noc(COC)n3)cc2)C1
  RP-LC retention time: 845 s

## CC(NCC(O)COCCOc1ccc(F)cc1)c1ccccc1 (stereo not drawn)
  RP-LC retention time: 595 s

## CCN(CC)CCCNc1ncnc2c1cnn2-c1cccc(Cl)c1
  RP-LC retention time: 648 s

## CCCN1CCn2cc(S(=O)(=O)Nc3cccc(C)c3)cc2C1=O
  RP-LC retention time: 777 s

## Cc1nc(-c2cn(C)c3ncccc23)sc1C(=O)Nc1ccccc1Cl
  RP-LC retention time: 1090 s

## CCc1cc(=O)n(CC(=O)Nc2ccc(C)cc2)c(N2CCOCC2)n1
  RP-LC retention time: 612 s

## COc1ccc(Cl)cc1S(=O)(=O)N1C[C@@H](F)C[C@H]1C(=O)N1CCCCC1
  RP-LC retention time: 785 s

## CCn1c(C(=O)N2CCN(c3ccc(F)cc3)CC2)cc2c(-c3cccs3)nn(-c3ccccc3)c21
  RP-LC retention time: 1220 s

## CCOC(=O)c1[nH]c(C)c(CN(Cc2ccccc2)C(=O)c2ccco2)c1C
  RP-LC retention time: 946 s

## COc1ccc(NC(=O)Cn2nc(N3CCOCC3)c3ccccc3c2=O)c(OC)c1
  RP-LC retention time: 766 s

## CC(C)NC(=O)C1CCCN(c2nc3ncn(CC(=O)Nc4cc(F)cc(F)c4)c(=O)c3s2)C1 (stereo not drawn)
  RP-LC retention time: 747 s

## CCCn1c(=O)sc2cc(S(=O)(=O)N3CCC(C(=O)Nc4ccc(Cl)cc4)CC3)ccc21
  RP-LC retention time: 1040 s

## Cc1ccc(F)cc1S(=O)(=O)N1CCC(n2cnnc2C(C)C)CC1
  RP-LC retention time: 740 s

## CCc1nncn1C1CCN(S(=O)(=O)c2ccc(OC)c(Cl)c2)CC1
  RP-LC retention time: 736 s

## Cc1ccc(-c2cn3ccn(-c4ccc(F)cc4)c(=O)c3n2)cc1
  RP-LC retention time: 827 s

## COCCNC(=O)Cc1c(C)n(C)c2nc(-c3ccccc3)nn2c1=O
  RP-LC retention time: 633 s

## CCc1ccccc1NC(=O)Nc1ccc2nnc(C)n2c1
  RP-LC retention time: 712 s

## COc1ccc(C)cc1NC(=O)N1CCCC1c1cc(C(C)C)on1 (stereo not drawn)
  RP-LC retention time: 1050 s

## CCOC(=O)c1ccc(CNC(=O)N2CCC(c3nc4ccncc4n3C)C2)cc1 (stereo not drawn)
  RP-LC retention time: 557 s

## CCn1cc(CN2CCC(C(=O)NCc3ccc(N(C)C)cc3)CC2)c2cc(OC)ccc21
  RP-LC retention time: 603 s

## Cc1nnc(C2CCCCCN2C(=O)CCc2c(C)nn(C)c2C)o1 (stereo not drawn)
  RP-LC retention time: 608 s

## O=C(Nc1ncnc2c1CCC2)c1ccc(S(=O)(=O)N2CCCc3ccccc32)cc1
  RP-LC retention time: 817 s

## Cc1ccccc1OCC(O)CN1CCN(Cc2ccc3c(c2)OCO3)CC1 (stereo not drawn)
  RP-LC retention time: 566 s

## Cc1sc2ncnc(N3CCCC(C)C3)c2c1C(=O)Nc1ccc(C(F)(F)F)cc1 (stereo not drawn)
  RP-LC retention time: 1340 s

## Cc1csc(-c2ccc(N3CCN(C(=O)c4ccccc4Br)CC3)nc2)n1
  RP-LC retention time: 884 s

## O=C(NCCN1CCOC(c2ccccc2)C1)c1ccc(Cl)c(Cl)c1 (stereo not drawn)
  RP-LC retention time: 610 s

## COc1ccc(-c2noc(Cc3nnc(-c4cccc(C)c4)o3)n2)cc1F
  RP-LC retention time: 1040 s

## CCCOC(=O)C1=C(C)NC2=C(C(=O)C(C(=O)OC)C(C)C2)C1c1ccc(OC)cc1 (stereo not drawn)
  RP-LC retention time: 907 s

## O=C(NC1CCCCC1)c1ccc(Nc2c(-c3ccc(Cl)cc3)nc3cnccn23)cc1
  RP-LC retention time: 909 s
